Assay results reported in publication PMC10981686, “Structural bases of inhibitory mechanism of CaV1.2 channel inhibitors” (Nature Communications, 2024).
Where “and” joins values, the source holds several entries; their conditions need not be identical. Equal entries are not always repeated. Where two headings read alike, the source gives them in different places.

Tests used:
[1] = system: L-type and T-type channels; design: method as in earlier work; settings: result in words, 82 and references of Supplementary Table 2, cited from earlier work
[2] = system: CaV1.2 with substitutions at positions T1056 and Q1060; design: method as in PMID 9006896; settings: result in words; cited from earlier work
T-type CaV channels = settings: cited from earlier work
CaV1.2^Q1060F = molecular target: T1, CaV1.2^Q1060F (Homo sapiens, UniProt Q13936, Q1060F); assay: whole-cell patch clamp inhibition curves in HEK293T cells, Q1060F mutant; type: cell-based
T1 construct: superfolder GFP (sfGFP) (C); Twin-Strep (C); expressed in transfected cells; host or cells: HEK293T
Method: (§1) Whole-cell voltage-clamp recordings were carried out using human embryonic kidney 293 T (HEK293T) cells, which were cultured in Dulbecco’s Modified Eagle Medium (DMEM, Gibco) supplemented with 10% (v/v) fetal bovine serum (FBS, PAN-Biotech) at 37 °C supplemented with 5% CO2. Three distinct recombinant baculoviruses encoding CaV1.2, α2δ1, and β2 were used to coinfect HEK293T cells once they reached a confluence of 40–60%. After 8−12 h, transfected cells were re-plated on 8 × 8 mm coverslips, and sodium butyrate was added to the culture at a final concentration of 0.5−2.5 mM to improve protein expression. Whole-cell recordings of activation curves were performed from isolated GFP-positive HEK293T cells at 20−28 h after transfection with recombinant baculoviruses. […] Pipettes were pulled to obtain final resistances of 2−6 MΩ with a Sutter P-97 puller and heat-polished before employment. […] The series resistance was not compensated in these experiments. […] Signals were digitized at 10 kHz and low-pass filtered at 2 kHz. Data were analyzed with Clampfit 10.7.
(§2) To measure the inhibition curves, 2 μg endotoxin-free plasmids of wild-type (WT) or mutants generated by PCR expressing CaV1.2, α2δ1, and β2 were transiently transfected using 1.2 μg Lipofectamine 2000 Reagent (Thermo Fisher Scientific). For curves determining, re-plated cells were held at −100 mV, and then depolarized at +10 mV to elicit inward currents. To ensure stable currents during measurement, a series of traces were pre-recorded at a specific time interval without drug application for each construct. […] Perfusions applied using a gravity-driven system. […] Data analyses were performed using Origin 2022 (Origin Lab Corporation), GraphPad Prism 9 (GraphPad Software, Inc.) and Adobe illustrator 2018.

N-type CaV channels = settings: cited from earlier work
[3] = molecular target: T2, CaV1.2^WT (human CaV1.2 with α2δ1 and β2) (Homo sapiens, UniProt Q13936); assay: whole-cell patch clamp inhibition curves in HEK293T cells, wild-type CaV1.2; type: cell-based; settings: for logIC50 (best-fit value): X values in μM
T2 construct: superfolder GFP (sfGFP) (C); Twin-Strep (C); expressed in transfected cells; host or cells: HEK293T
Method: as §1, §2

CaV1.2^T1056Y = molecular target: T3, CaV1.2^T1056Y (Homo sapiens, UniProt Q13936, T1056Y); assay: whole-cell patch clamp inhibition curves in HEK293T cells, T1056Y mutant; type: cell-based
T3 construct: superfolder GFP (sfGFP) (C); Twin-Strep (C); expressed in transfected cells; host or cells: HEK293T
Method: as §1, §2

CaV1.2^Q1060M = molecular target: T4, CaV1.2^Q1060M (Homo sapiens, UniProt Q13936, Q1060M); assay: whole-cell patch clamp inhibition curves in HEK293T cells, Q1060M mutant; type: cell-based
T4 construct: superfolder GFP (sfGFP) (C); Twin-Strep (C); expressed in transfected cells; host or cells: HEK293T
Method: as §1, §2

CaV1.2^N1179W = molecular target: T5, CaV1.2^N1179W (Homo sapiens, UniProt Q13936, N1179W); assay: whole-cell patch clamp inhibition curves in HEK293T cells, N1179W mutant; type: cell-based
T5 construct: superfolder GFP (sfGFP) (C); Twin-Strep (C); expressed in transfected cells; host or cells: HEK293T
Method: as §1, §2

CaV1.2^N741W = molecular target: T6, CaV1.2^N741W (Homo sapiens, UniProt Q13936, N741W); assay: whole-cell patch clamp inhibition curves in HEK293T cells, N741W mutant; type: cell-based
T6 construct: superfolder GFP (sfGFP) (C); Twin-Strep (C); expressed in transfected cells; host or cells: HEK293T
Method: as §1, §2

T3 sequence (Q13936 whole entry T1056Y): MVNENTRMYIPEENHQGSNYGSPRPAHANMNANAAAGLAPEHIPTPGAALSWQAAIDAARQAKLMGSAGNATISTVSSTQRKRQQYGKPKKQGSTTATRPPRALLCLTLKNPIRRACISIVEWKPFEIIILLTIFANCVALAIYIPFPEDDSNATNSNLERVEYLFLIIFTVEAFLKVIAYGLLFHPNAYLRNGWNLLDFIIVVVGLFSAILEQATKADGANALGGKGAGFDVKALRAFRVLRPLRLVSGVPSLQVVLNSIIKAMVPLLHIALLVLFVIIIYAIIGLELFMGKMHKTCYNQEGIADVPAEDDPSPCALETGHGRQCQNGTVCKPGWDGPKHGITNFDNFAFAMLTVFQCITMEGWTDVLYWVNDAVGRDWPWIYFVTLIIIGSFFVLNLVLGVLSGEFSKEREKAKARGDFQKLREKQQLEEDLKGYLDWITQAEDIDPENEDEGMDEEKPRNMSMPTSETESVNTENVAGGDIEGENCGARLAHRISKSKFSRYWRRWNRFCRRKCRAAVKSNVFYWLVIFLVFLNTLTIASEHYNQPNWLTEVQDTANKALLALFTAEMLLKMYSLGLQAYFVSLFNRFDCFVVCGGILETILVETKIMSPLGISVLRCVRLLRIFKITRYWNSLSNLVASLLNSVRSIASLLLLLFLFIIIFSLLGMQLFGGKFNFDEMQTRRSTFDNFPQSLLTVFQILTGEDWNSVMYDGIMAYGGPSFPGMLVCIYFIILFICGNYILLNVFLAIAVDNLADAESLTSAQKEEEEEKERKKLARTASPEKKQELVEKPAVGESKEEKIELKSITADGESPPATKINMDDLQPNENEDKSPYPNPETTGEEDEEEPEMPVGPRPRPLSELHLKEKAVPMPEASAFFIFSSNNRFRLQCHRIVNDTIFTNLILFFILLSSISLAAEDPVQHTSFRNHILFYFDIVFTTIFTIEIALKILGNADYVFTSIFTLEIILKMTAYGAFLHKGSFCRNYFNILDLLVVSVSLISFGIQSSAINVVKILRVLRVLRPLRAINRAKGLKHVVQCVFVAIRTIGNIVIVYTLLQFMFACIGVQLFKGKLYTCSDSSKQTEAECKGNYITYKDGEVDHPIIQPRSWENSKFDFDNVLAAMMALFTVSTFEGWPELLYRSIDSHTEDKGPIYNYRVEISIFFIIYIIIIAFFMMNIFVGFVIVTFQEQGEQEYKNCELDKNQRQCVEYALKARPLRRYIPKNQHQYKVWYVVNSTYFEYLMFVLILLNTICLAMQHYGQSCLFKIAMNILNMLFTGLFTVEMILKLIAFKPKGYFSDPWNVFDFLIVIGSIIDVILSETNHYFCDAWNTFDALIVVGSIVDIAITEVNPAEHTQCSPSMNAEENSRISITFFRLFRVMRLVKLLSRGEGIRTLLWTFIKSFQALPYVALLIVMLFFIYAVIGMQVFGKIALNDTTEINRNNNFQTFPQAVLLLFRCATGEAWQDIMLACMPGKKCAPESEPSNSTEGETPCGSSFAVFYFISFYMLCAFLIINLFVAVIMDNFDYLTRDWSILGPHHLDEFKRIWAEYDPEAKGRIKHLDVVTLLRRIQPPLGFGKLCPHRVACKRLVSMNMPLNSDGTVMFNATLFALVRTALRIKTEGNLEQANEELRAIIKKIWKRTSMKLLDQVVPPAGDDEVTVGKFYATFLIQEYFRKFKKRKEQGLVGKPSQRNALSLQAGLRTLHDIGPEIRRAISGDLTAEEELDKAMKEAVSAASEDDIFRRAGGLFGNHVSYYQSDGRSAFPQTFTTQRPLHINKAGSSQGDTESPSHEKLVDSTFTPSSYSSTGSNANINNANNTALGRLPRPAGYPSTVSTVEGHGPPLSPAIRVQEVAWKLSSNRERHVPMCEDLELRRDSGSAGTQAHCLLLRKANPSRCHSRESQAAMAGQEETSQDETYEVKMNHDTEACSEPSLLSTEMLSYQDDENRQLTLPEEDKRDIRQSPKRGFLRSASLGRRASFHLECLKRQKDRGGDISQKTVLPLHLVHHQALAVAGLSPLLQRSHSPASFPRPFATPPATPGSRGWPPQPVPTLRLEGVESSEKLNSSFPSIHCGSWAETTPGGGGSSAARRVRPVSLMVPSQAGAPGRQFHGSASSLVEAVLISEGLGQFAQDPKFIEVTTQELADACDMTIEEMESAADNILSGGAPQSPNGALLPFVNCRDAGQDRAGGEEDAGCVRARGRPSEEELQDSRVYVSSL
T3 sequence (P54289 25-946 partner limits assumed): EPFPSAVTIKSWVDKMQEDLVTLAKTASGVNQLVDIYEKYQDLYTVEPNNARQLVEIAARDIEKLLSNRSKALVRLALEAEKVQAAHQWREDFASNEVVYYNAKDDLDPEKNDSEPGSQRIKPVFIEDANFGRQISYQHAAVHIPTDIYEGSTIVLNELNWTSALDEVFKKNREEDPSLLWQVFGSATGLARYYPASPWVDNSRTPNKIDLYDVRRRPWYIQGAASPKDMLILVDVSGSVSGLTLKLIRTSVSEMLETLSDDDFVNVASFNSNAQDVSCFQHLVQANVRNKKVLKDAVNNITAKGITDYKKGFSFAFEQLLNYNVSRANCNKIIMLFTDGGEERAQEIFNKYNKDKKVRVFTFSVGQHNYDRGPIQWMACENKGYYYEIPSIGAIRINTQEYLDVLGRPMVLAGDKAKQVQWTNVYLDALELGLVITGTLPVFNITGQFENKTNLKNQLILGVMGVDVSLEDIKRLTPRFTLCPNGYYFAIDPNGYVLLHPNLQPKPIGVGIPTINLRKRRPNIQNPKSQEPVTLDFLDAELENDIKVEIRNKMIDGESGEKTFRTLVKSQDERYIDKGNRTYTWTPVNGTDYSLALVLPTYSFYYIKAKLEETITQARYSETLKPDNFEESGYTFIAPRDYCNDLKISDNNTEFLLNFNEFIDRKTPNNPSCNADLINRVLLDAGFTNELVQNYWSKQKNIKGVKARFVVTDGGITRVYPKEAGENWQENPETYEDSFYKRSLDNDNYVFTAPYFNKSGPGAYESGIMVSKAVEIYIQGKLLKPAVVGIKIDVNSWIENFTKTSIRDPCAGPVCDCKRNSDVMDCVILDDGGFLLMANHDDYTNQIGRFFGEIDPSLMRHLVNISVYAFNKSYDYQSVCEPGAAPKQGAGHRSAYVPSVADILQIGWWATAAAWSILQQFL
T3 sequence (P54289 947-1103 partner limits assumed): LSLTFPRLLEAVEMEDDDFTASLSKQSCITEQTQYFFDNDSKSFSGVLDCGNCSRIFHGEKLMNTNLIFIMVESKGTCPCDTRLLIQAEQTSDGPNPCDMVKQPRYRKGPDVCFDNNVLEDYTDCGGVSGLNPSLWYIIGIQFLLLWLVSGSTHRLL
T3 sequence (Q08289 1-606 isoform Q08289-3 partner): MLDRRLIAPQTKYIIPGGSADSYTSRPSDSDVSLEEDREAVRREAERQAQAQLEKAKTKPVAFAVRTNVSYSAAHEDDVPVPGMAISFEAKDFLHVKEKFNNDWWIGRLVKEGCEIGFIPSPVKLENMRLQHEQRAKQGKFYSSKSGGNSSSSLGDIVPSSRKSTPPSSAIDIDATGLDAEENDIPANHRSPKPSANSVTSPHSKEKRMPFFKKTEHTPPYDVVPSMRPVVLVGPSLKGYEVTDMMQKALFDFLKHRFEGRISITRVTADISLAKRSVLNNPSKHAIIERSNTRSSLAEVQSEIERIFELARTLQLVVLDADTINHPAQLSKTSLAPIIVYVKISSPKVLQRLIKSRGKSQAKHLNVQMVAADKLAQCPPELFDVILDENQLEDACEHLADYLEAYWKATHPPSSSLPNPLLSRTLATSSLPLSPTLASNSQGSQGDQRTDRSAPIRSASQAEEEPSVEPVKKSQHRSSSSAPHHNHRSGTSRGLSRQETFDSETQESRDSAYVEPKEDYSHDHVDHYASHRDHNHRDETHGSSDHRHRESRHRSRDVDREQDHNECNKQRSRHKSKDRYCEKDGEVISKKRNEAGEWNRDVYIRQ
T5 sequence (Q13936 whole entry N1179W): as the sequence (Q13936 whole entry T1056Y) above, with Y1056T, N1179W counted along it
T5 sequence (P54289 25-946 partner limits assumed): as the sequence (P54289 25-946 partner limits assumed) above
T5 sequence (P54289 947-1103 partner limits assumed): as the sequence (P54289 947-1103 partner limits assumed) above
T5 sequence (Q08289 1-606 isoform Q08289-3 partner): as the sequence (Q08289 1-606 isoform Q08289-3 partner) above

In the case of `CCOC(=O)C1=C(C)NC(C)=C(C(=O)OC)C1c1cccc(Cl)c1Cl` (stereo not drawn) [felodipine, Felodipine], the “selectivity class for L-type and T-type channels” value (“selectivity class” below) [1] is given as “L-type selective”.

In the case of `COC(=O)C1=C(C)NC(C)=C(C(=O)OCCN2CCN(C(c3ccccc3)c3ccccc3)CC2)C1c1cccc([N+](=O)[O-])c1` (stereo not drawn) [manidipine, Manidipine], the “selectivity class” value [1] is listed as “L/T-type selective” and the “selectivity class” value ([1]; listed as Manidipine) is listed as “non-selective”.

For `CC1=C(C(=O)OC(C)C)[C@@H](c2cccc3nonc23)C([N+](=O)[O-])=C(C)N1` [R202-791], the “effect of substitutions at T1056 and Q1060 on sensitivity of CaV1.2 to the drug” value [2] is listed as “almost abolished the sensitivity”.

For `COC(=O)C1=C(C)NC(C)=C(C(=O)OC2CCCN(Cc3ccccc3)C2)C1c1cccc([N+](=O)[O-])c1` (stereo not drawn) [benidipine], the “selectivity class” value [1] is given as “L/T-type selective”, the “selectivity class” value ([1]; listed as Benidipine) is given as “non-selective” and the IC50 (T-type CaV channels) is given as 11 µM and ~11 µM. It also gave a remaining activity at 0.01 µM (CaV1.2^Q1060F; HEK-293T, benidipine 0.01 μM, Q1060F, single experiments, Supplementary Fig. 7c source data, read-out: normalized current (I/Imax)) of 93.9%, a remaining activity at 0.1 µM (CaV1.2^Q1060F; HEK-293T, benidipine 0.1 μM, Q1060F, single experiments, Supplementary Fig. 7c source data, read-out: normalized current (I/Imax)) of 88.2% and a remaining activity at 1 µM (CaV1.2^Q1060F; HEK-293T, benidipine 1 μM, Q1060F, single experiments, Supplementary Fig. 7c source data, read-out: normalized current (I/Imax)) of 81.9%. For the same molecule, the IC50 (CaV1.2^Q1060F; IC50 of benidipine on CaV1.2^Q1060F, held at -100 mV, depolarized at +10 mV every 1 min, n = 4) was 11.7 µM, the “HillSlope (best-fit value)” value (CaV1.2^Q1060F; benidipine, Q1060F) was -0.3921 and the “logIC50 (best-fit value)” value (CaV1.2^Q1060F; benidipine, Q1060F, X values in μM) was 1.07. For the same molecule, the IC50 (CaV1.2^Q1060F; benidipine, Q1060F, variable slope fit, X values in μM per sheet Supplementary Figure 7c, read-out: IC50 (best-fit value)) was 11.7 µM, the IC50 (N-type CaV channels) was about 35 µM and the remaining activity at 0.01 µM ([3]; HEK-293T, benidipine 0.01 μM, WT, single experiments, Supplementary Fig. 7c source data, read-out: normalized current (I/Imax)) was 91%. For the same molecule, the remaining activity at 1 µM ([3]; HEK-293T, benidipine 1 μM, WT, single experiments, Supplementary Fig. 7c source data, read-out: normalized current (I/Imax)) was 27.4%, the CaV1.2 current reduction ([3]; benidipine 100 μM) was 90% and the “HillSlope (best-fit value)” value ([3]; benidipine, WT) was -0.5499. The “logIC50 (best-fit value)” value ([3]; benidipine, WT) was -0.6638, the remaining activity at 0.01 µM (CaV1.2^T1056Y; HEK-293T, benidipine 0.01 μM, T1056Y, single experiments, Supplementary Fig. 7c source data, read-out: normalized current (I/Imax)) was 99.8% and the remaining activity at 0.1 µM (CaV1.2^T1056Y; HEK-293T, benidipine 0.1 μM, T1056Y, single experiments, Supplementary Fig. 7c source data, read-out: normalized current (I/Imax)) was 91.4%. For the same molecule, the remaining activity at 1 µM (CaV1.2^T1056Y; HEK-293T, benidipine 1 μM, T1056Y, single experiments, Supplementary Fig. 7c source data, read-out: normalized current (I/Imax)) was 85.3%, the remaining activity at 10 µM (CaV1.2^T1056Y; HEK-293T, benidipine 10 μM, T1056Y, single experiments, Supplementary Fig. 7c source data, read-out: normalized current (I/Imax)) was 67.2% and the “HillSlope (best-fit value)” value (CaV1.2^T1056Y; benidipine, T1056Y) was -0.3204. The “logIC50 (best-fit value)” value (CaV1.2^T1056Y; benidipine, T1056Y, X values in μM) was 2.427, the IC50 (CaV1.2^T1056Y; held at -100 mV, depolarized at +10 mV every 1 min, n = 4) was over 100 µM and the remaining activity at 0.01 µM (CaV1.2^Q1060M; HEK-293T, benidipine 0.01 μM, Q1060M, single experiments, Supplementary Fig. 7c source data, read-out: normalized current (I/Imax)) was 97%. The remaining activity at 0.1 µM (CaV1.2^Q1060M; HEK-293T, benidipine 0.1 μM, Q1060M, single experiments, Supplementary Fig. 7c source data, read-out: normalized current (I/Imax)) was 88.7%, the remaining activity at 1 µM (CaV1.2^Q1060M; HEK-293T, benidipine 1 μM, Q1060M, single experiments, Supplementary Fig. 7c source data, read-out: normalized current (I/Imax)) was 73.2% and the remaining activity at 10 µM (CaV1.2^Q1060M; HEK-293T, benidipine 10 μM, Q1060M, single experiments, Supplementary Fig. 7c source data, read-out: normalized current (I/Imax)) was 46.7%. For the same molecule, the remaining activity at 100 µM (CaV1.2^Q1060M; HEK-293T, benidipine 100 μM, Q1060M, single experiments, Supplementary Fig. 7c source data, read-out: normalized current (I/Imax)) was 20.1%, the IC50 (CaV1.2^Q1060M; IC50 of benidipine on CaV1.2^Q1060M, held at -100 mV, depolarized at +10 mV every 1 min, n = 4) was 7.5 µM and the “HillSlope (best-fit value)” value (CaV1.2^Q1060M; benidipine, Q1060M) was -0.4107. The “logIC50 (best-fit value)” value (CaV1.2^Q1060M; benidipine, Q1060M, X values in μM) was 0.8728 and the IC50 (CaV1.2^Q1060M; benidipine, Q1060M, variable slope fit, X values in μM per sheet Supplementary Figure 7c, read-out: IC50 (best-fit value)) was 7.46 µM.

For `COCCOC(=O)C1=C(C)NC(C)=C(C(=O)OC(C)C)C1c1cccc([N+](=O)[O-])c1` (stereo not drawn) [nimodipine, Nimodipine], the “selectivity class” value [1] is given as “non-selective” and the “preference among T-type channels” value (T-type CaV channels; CaV3.1, CaV3.2, CaV3.3) is given as “preference for inhibiting CaV3.2 and CaV3.3 over CaV3.1”.

For `CCOC(=O)C1=C(C)NC(C)=C(C(=O)OC)C1c1cccc([N+](=O)[O-])c1` (stereo not drawn) [nitrendipine, Nitrendipine], the “selectivity class” value [1] is given as “L-type selective”.

In the case of `COCCOC(=O)C1=C(C)NC(C)=C(C(=O)OC/C=C/c2ccccc2)C1c1cccc([N+](=O)[O-])c1` (stereo not drawn) [cilnidipine, Cilnidipine], the “selectivity class” value [1] is given as “L-type selective” and the “inhibition of T-type channels” value (T-type CaV channels; result in words) is given as “cannot inhibit T-type channels”.

In the case of `COC(=O)C1=C(C)NC(C)=C(C(=O)OC)C1c1ccccc1[N+](=O)[O-]` [nifedipine], the “selectivity class” value [1] is given as “L-type selective”, the “sensitivity of T-type CaV channels” value (T-type CaV channels; result in words) is given as “no sensitivity” and the “sensitivity of N-type CaV channels” value (N-type CaV channels; result in words) is given as “no sensitivity”.

With `COc1ccc2cc1Oc1ccc(cc1)C[C@H]1c3cc(c(OC)cc3CCN1C)Oc1c(OC)c(OC)cc3c1[C@H](C2)N(C)CC3` [tetrandrine] the remaining activity at 0.001 µM (CaV1.2^N1179W; HEK-293T, tetrandrine 0.001 μM, N1179W, single experiments, Fig. 3f source data, read-out: normalized current (I/Imax)) was 86.3%, the IC50 (CaV1.2^N1179W; held at -100 mV, depolarized at +10 mV every 20 s, n = 10) was 0.0418 µM and the “HillSlope (best-fit value)” value (CaV1.2^N1179W; tetrandrine, N1179W) was -0.3696. For the same molecule, the “logIC50 (best-fit value)” value (CaV1.2^N1179W; tetrandrine, N1179W, X values in μM) was -1.379, the remaining activity at 0.001 µM ([3]; HEK-293T, tetrandrine 0.001 μM, WT, single experiments, Fig. 3f source data, read-out: normalized current (I/Imax)) was 84.9% and the IC50 ([3]; IC50 of tetrandrine on CaV1.2^WT, held at -100 mV, depolarized at +10 mV every 20 s, n = 10) was ~0.0142 µM and 0.0142 µM. For the same molecule, the CaV1.2 current reduction ([3]; tetrandrine 10 μM) was 90%, the “HillSlope (best-fit value)” value ([3]; tetrandrine, WT) was -0.4914 and the “logIC50 (best-fit value)” value ([3]; tetrandrine, WT) was -1.849. The remaining activity at 0.001 µM (CaV1.2^N741W; HEK-293T, tetrandrine 0.001 μM, N741W, single experiments, Fig. 3f source data, read-out: normalized current (I/Imax)) was 90.1%, the remaining activity at 0.1 µM (CaV1.2^N741W; HEK-293T, tetrandrine 0.1 μM, N741W, single experiments, Fig. 3f source data, read-out: normalized current (I/Imax)) was 49.4% and the remaining activity at 10 µM (CaV1.2^N741W; HEK-293T, tetrandrine 10 μM, N741W, single experiments, Fig. 3f source data, read-out: normalized current (I/Imax)) was 22.8%. The IC50 (CaV1.2^N741W; IC50 of tetrandrine on CaV1.2^N741W, held at -100 mV, depolarized at +10 mV every 20 s, n = 10) was 0.0713 µM, the “HillSlope (best-fit value)” value (CaV1.2^N741W; tetrandrine, N741W) was -0.3074 and the “logIC50 (best-fit value)” value (CaV1.2^N741W; tetrandrine, N741W, X values in μM) was -1.147. It also gave an IC50 (CaV1.2^N741W; tetrandrine, N741W, variable slope fit, bottom 0, top 1, X values in μM per sheet Figure 3f, read-out: IC50 (best-fit value)) of 0.0712 µM.
